In PMC9854762, “Antibiofilm and Anti-Quorum-Sensing Activities of Novel Pyrazole and Pyrazolo[1,5-a]pyrimidine Derivatives as Carbonic Anhydrase I and II Inhibitors: Design, Synthesis, Radiosterilization, and Molecular Docking Studies” (Antibiotics, 2023):
Values after ≈ are worked out from the molar mass of the structure shown.

Columns and labels:
hCA-II = biological target: T1, hCA-II (Homo sapiens, UniProt P00918); assay: Carbonic anhydrase isoenzyme inhibition assay; type: biochemical; conditions: for Ki: Lineweaver–Burk graphs
T1 construct: from tissue; host or cells: human erythrocytes (hemolysate)
Method: (§1) The purification of both human cytosolic CA isoforms was carried out as previously described, using a simple one-step procedure of Sepharose-4B-L-tyrosine-sulfanilamide affinity chromatography. […] The carbonic anhydrase isoenzymes’ activities were determined in accordance with the previous study. […] For the designation of the inhibition efficacy of each novel pyrazole and for the pyrazolo[1,5-a]pyrimidine derivatives on both hCA isoenzymes, an activity (%) graph was drawn. The IC50 values were obtained from activity (%) versus compounds plots. The Ki values were calculated using three concentrations for each derivative.

hCA-I = biological target: T2, hCA-I (Homo sapiens, UniProt P00915); assay: Carbonic anhydrase isoenzyme inhibition assay; type: biochemical; conditions: for Ki: Lineweaver–Burk graphs
T2 construct: from tissue; host or cells: human erythrocytes (hemolysate)
Method: as §1

S. aureus = assay: Anti-QS activity via signal inhibition, CV026 as indicator; type: cell-based; conditions: S. aureus 10^6 CFU/mL; sub-MICs; control 12.0 mm
Method: (§2) The anti-QS potential of the tested compounds was explored as described. Briefly, an overnight bacterial suspension of the indicator organism C. violaceum CV026 was prepared in a concentration of 10^6 CFU/mL, and an aliquot of 200 µL was seeded in 5 mm of Soft Top agar (1.3 g agar, 2.0 g tryptone, 1.0 g NaCl, and 200 mL deionized water), supplemented with 20 µL of 0.25 µg/mL C6-HSL (N-hexanoyl-L-homoserine lactone), added as an exogenous AHL source. Wells were cut in the center of the plate after incubation for 30 min and then filled with 50 µL of sub-MICs of each most-active pyrazole hybrid. DMSO was used as a negative control. The plates were incubated at 28 °C for 48 h. Inhibition of violacein production by the indicator strain around the well, indicated by the presence of a white circle surrounded by a purple halo, was considered as positive for QS interference. For further investigation to determine the anti-QS activity for the pyrazole against the biofilm-forming bacterial isolates, an in vitro screening was performed. This was carried out by inoculation of 200 µL from an O/N CV026 culture onto plates of Soft Top agar. Wells of 8 mm diameter were separately made and filled with 90 µL of each biofilm-forming bacterial isolate (10^6 CFU/mL), plus 10 µL of each active pyrazole derivative (sub-MICs). Wells containing the bacterial isolates without treatment were used as controls. The signal diffusion zone diameter produced during the bacterial growth was measured in the presence of pyrazole and pyrazolo[1,5-a]pyrimidine derivatives and compared with the zone diameter of the violacein production by CV026.

E. coli DH-5987 [1] = assay: Agar well-diffusion assay; type: cell-based; conditions: Escherichia coli, DH5987, 50 µL of 10 mM per well, read-out: Diameter of Inhibition Zones (AZOI)
Method: (§3) The synthesized compounds were initially screened for their in vitro antibacterial activity against the different Gram-positive and Gram-negative bacteria, tested using the agar well-diffusion assay. The turbidity of the bacterial suspensions was established to the 0.5 McFarland turbidity standard. The activity was performed on TS agar plates. The bacteria were spread on the surface of the agar plates, and 10 mm wells were screwed into the agar plates. The assay was performed under aseptic conditions. An aliquot of 50 µL of each tested compound (10 mM) was added to the wells, and the plates were incubated overnight at 37 °C. Both Erythromycin and Amikacin antibiotic disks were used as positive control, while DMSO solvent was used as a negative control in this study. The diameters of inhibition zones were measured and recorded in mm. A comparative study of the synthesized compounds was determined. The experiment was performed in triplicates.

S. pyogenes DH-3467 [2] = assay: Agar well-diffusion assay; type: cell-based; conditions: Streptococcus pyogenes, DH3467; S. pyogenes DH-3467; 50 µL of 10 mM per well; read-out: Diameter of Inhibition Zones (AZOI)
Method: as §3

S. aureus DH-432 = assay: Agar well-diffusion assay; type: cell-based; conditions: Staphylococcus aureus, DH432; S. aureus DH-432; 50 µL of 10 mM per well; read-out: Diameter of Inhibition Zones (AZOI)
Method: as §3

A. baumannii DH-243 = assay: Agar well-diffusion assay; type: cell-based; conditions: Acinetobacter baumannii, DH243; A. baumannii DH-243; 50 µL of 10 mM per well; read-out: Diameter of Inhibition Zones (AZOI)
Method: as §3

E. faecalis DH-5478 [3] = assay: Agar well-diffusion assay; type: cell-based; conditions: Enterococcus faecalis, DH5478; E. faecalis DH-5478; 50 µL of 10 mM per well; read-out: Diameter of Inhibition Zones (AZOI)
Method: as §3

P. aeruginosa DH-5698 [4] = assay: Broth microdilution MIC/MBC; type: cell-based, Pseudomonus aeruginosa; conditions: for MIC: Pseudomonas aeruginosa, DH5698, 24 h, read-out: MIC (Mean ± SEM); for MBC/MIC: value in brackets
Method: (§4) The broth microdilution method was taken as a basis to detect the MICs of pyrazole compounds against tested clinical isolates, according to the Clinical Laboratory and Standards Institute guidelines. The broth cultures were used to prepare the bacterial inoculums, and the suspensions were adjusted to the standard 0.5 McFarland turbidity. Stock solutions of the synthesized pyrazoles were prepared in pure DMSO and further serially diluted with TS broth in the concentration range from 128 µg/mL to 0.0625 µg/mL. A well containing noninoculated TS broth, free of any antimicrobial agents, was also included to ensure the medium sterility, while Erythromycin and Amikacin served as positive controls. Bacterial growth was determined by adding 20 µL of 0.5% TTC (2,3,5-triphenyltetrazolium chloride) aqueous solution. […] All experiments were repeated three times. The bactericidal effect from each concentration of the pyrazole and pyrazolo[1,5-a]pyrimidine derivatives showing growth inhibition was further studied. For this study, a loopful of 5 µL was taken from each no-visible growth tube and streaked onto plates of TS agar.

S. pyogenes DH-3467 [5] = assay: Broth microdilution MIC/MBC; type: cell-based, Streptococcus pyogenes; conditions: for MIC: Streptococcus pyogenes, DH3467, 24 h, read-out: MIC (Mean ± SEM); for MBC/MIC: value in brackets
Method: as §4

E. faecalis DH-5478 [6] = assay: Broth microdilution MIC/MBC; type: cell-based, Enterococcus faecalis; conditions: for MIC: Enterococcus faecalis, DH5478, 24 h, read-out: MIC (Mean ± SEM); for MBC/MIC: value in brackets
Method: as §4

C. violaceum CV026 = assay: Quorum-sensing inhibition bioassay on Soft Top agar; type: cell-based, Chromobacterium violaceum; conditions: CV026 biosensor strain, sub-MIC
Method: as §2

P. aeruginosa DH-5698 [7] = assay: Agar well-diffusion assay; type: cell-based, Pseudomonus aeruginosa; conditions: Pseudomonas aeruginosa, DH5698; P. aeruginosa DH-5698; 50 µL of 10 mM per well; read-out: Diameter of Inhibition Zones (AZOI)
Method: as §3

E. coli DH-5987 [8] = assay: Broth microdilution MIC/MBC; type: cell-based, Escherichia coli; conditions: for MIC (Mean ± SEM) / MBC/MIC / MIC: E. coli DH-5987; for MIC (Mean ± SEM) / MIC: 24 h; for MBC/MIC: value in brackets; for MBC / MIC: Escherichia coli, DH5987; for MBC: E. coli; for MIC: read-out: MIC (Mean ± SEM)
Method: as §4

T2 sequence (P00915 whole entry): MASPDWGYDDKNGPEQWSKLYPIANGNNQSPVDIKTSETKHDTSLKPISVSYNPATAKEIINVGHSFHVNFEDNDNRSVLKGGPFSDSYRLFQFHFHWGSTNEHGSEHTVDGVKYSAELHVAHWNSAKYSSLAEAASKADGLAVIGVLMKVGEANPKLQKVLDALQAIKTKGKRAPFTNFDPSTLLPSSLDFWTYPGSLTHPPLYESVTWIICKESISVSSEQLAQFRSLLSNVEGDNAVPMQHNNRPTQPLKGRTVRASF

Structure (SMILES) | IC50 (hCA-II) [nM] | Ki (hCA-II) [nM] | IC50 (hCA-I) [nM] | Ki (hCA-I) [nM] | QS signal diffusion zone (S. aureus) [mm] | zone of inhibition at 10000 µM (E. coli DH-5987 [1]) [mm] | zone of inhibition at 10000 µM (S. pyogenes DH-3467 [2]) [mm] | zone of inhibition at 10000 µM (S. aureus DH-432) [mm] | zone of inhibition at 10000 µM (A. baumannii DH-243) [mm] | zone of inhibition at 10000 µM (E. faecalis DH-5478 [3]) [mm] | MIC (P. aeruginosa DH-5698 [4]) [µg/mL] | MBC/MIC (P. aeruginosa DH-5698 [4]) | MIC (S. pyogenes DH-3467 [5]) [µg/mL] | MBC/MIC (S. pyogenes DH-3467 [5]) | MIC (E. faecalis DH-5478 [6]) [µg/mL] | MBC/MIC (E. faecalis DH-5478 [6]) | Concentration at which anti-QS activity (visible halo zone) was observed (C. violaceum CV026) [µg/mL] | zone of inhibition at 10000 µM (P. aeruginosa DH-5698 [7]) [mm] | MBC/MIC (E. coli DH-5987 [8]) | MIC (E. coli DH-5987 [8]) [µg/mL] | other results
CCOC(=O)c1ccc(N=Nc2c(N)nn3c(N)c(C#N)c(-c4ccc(N(C)C)cc4)nc23)cc1 [Compound 9a, Ethyl-4-((2,7-diamino-6-cyano-5-(4-(dimethylamino)phenyl)pyrazolo[1,5-a]pyrimidin-3-yl)diazenyl)benzoate] | 142 | 136 | 123 | 102 | 6.9 | 30.4 | 29.3 | 29.1 | 28.4 | 28.7 | 0.375 ± 0.3 (≈ 0.799 µM) | 0.5 | 0.25 ± 0.2 (≈ 0.532 µM) | 0.5 | 0.5 ± 0.1 (≈ 1.06 µM) | 0.5 | 0.187 | 28.5 | 0.5 | 0.125 (≈ 0.266 µM) | MIC (Mean ± SEM) (E. coli DH-5987 [8]): 0.125 ± 0.1 µg/mL (≈ 0.266 µM); MBC (E. coli DH-5987 [8]): 0.0625 µg/mL (≈ 0.133 µM)
CCOC(=O)c1ccc(N=Nc2c(N)nn3c(O)c(C#N)c(-c4ccc(N(C)C)cc4)nc23)cc1 [Compound 10a, Ethyl-4-((2-amino-6-cyano-5-(4-(dimethylamino)phenyl)-7-hydroxypyrazolo[1,5-a]pyrimidin-3-yl)diazenyl)benzoate] | 122 | 139 | 153 | 144 | 6.2 | 31.5 | 30.7 | 30.6 | 29.1 | 29.8 | 0.187 ± 0.1 (≈ 0.397 µM) | 0.5 | 0.187 ± 0.2 (≈ 0.397 µM) | 0.5 | 0.187 ± 0.1 (≈ 0.397 µM) | 0.5 | 0.0625 | 30.1 |  | 0.125 (≈ 0.266 µM) | MIC (Mean ± SEM) (E. coli DH-5987 [8]): 0.125 ± 0.2 µg/mL (≈ 0.266 µM); MBC (E. coli DH-5987 [8]): 0.0625 µg/mL (≈ 0.133 µM)
CCOC(=O)c1ccc(N=Nc2c(N)n[nH]c2N)cc1 [Compound 3a, Ethyl 4-((3,5-diamino-1H-pyrazol-4-yl)diazenyl)benzoate] | 73.2 | 91.8 | 92.3 | 88.8 | 5.0 | 32 | 31.5 | 31.1 | 29.3 | 30.6 | 0.125 ± 0.2 (≈ 0.456 µM) | 0.5 | 0.125 ± 0.3 (≈ 0.456 µM) | 0.5 | 0.125 ± 0.1 (≈ 0.456 µM) | 0.5 | 0.0625 | 30.8 | 0.5 | 0.0625 ± 0.4 (≈ 0.228 µM) | 
CCOC(=O)c1ccc(N=Nc2c(N)nn3c(C)cc(C)nc23)cc1 [Compound 6, ethyl-4-((2-amino-5,7-dimethylpyrazolo[1,5-a]pyrimidin-3-yl)diazenyl)benzoate] | 130 | 146 | 169 | 153 | 6.5 | 31 | 30.2 | 29.5 | 28.8 | 29.5 | 0.375 ± 0.4 (≈ 1.11 µM) | 0.5 | 0.25 ± 0.3 (≈ 0.739 µM) | 0.5 | 0.375 ± 0.2 (≈ 1.11 µM) | 0.5 | 0.125 | 28.8 | 0.5 | 0.25 ± 0.1 (≈ 0.739 µM) | 
CCOC(=O)c1ccc(N=Nc2c(N=Cc3ccc(N(C)C)cc3)n[nH]c2N)cc1 [Compound 5a, Ethyl 4-((5-amino-3-((4-(dimethylamino)benzylidene)amino)-1H-pyrazol-4-yl)diazenyl)benzoate] | 161 | 144 | 138 | 176 | 7.3 | 29.9 | 28.9 | 28.6 | 28 | 28.2 | 0.5 ± 0.1 (≈ 1.23 µM) | 0.5 | 0.5 ± 0.1 (≈ 1.23 µM) | 0.5 | 0.5 ± 0.2 (≈ 1.23 µM) | 0.5 | 0.187 | 28.3 | 0.5 | 0.25 (≈ 0.617 µM) | 
